Experimental findings from patent publication US20240059691A1 (KALVISTA PHARMACEUTICALS LIMITED, priority 2020, published 2024) are described below.

The target in one test is Human Factor XIIa (Homo sapiens (Human), UniProt P00748). The test can be described thus: Determination of FXIIa inhibition (fluorogenic substrate H-DPro-Phe-Arg-AFC, IC50 assay). It is filed as biochemical. The conditions noted are these: substrate H-DPro-Phe-Arg-AFC at Km, 25° C.; class scale A-G. In a few lines:
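IC50 derived from % remaining activity, taken as the linear fluorescence rate over a 5 min read at 25° C. Substrate H-DPro-Phe-Arg-AFC was used at its Km (Michaelis-Menten) with human FXIIa and serial compound dilutions, 25° C.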

For another test, the target named is Plasma Kallikrein (Homo sapiens (Human), UniProt P03952). The test can be described thus: Determination of related protease inhibition: Plasma Kallikrein (fluorogenic substrate at Km). To be noted: 25° C., read-out: IC50 (human PKal). It is filed as biochemical. As to the method: Determination of Related Protease Inhibition
In vitro inhibition of related proteases was determined using an ([…] assay based on standard literature methods (see e.g. Shori et al., Biochem. Pharmacol., 1992, 43, 1209; Bouckaert et al., European Journal of Medicinal Chemistry 110 (2016) 181). Human serine protease enzymes Plasma Kallikrein, KLK1, FXa, Plasmin, Thrombin and Trypsin were assayed for enzymatic activity using an appropriate fluorogenic substrate at Km concentration, FXIa at fixed substrate concentration of 100 μM, and various concentrations of the test compound. Protease activity was measured by monitoring the accumulation of liberated fluorescence from the substrate over […]. The linear rate of fluorescence increase per minute was expressed as percentage (%) activity. IC50 values were calculated as the concentration of inhibitor giving 50% inhibition of the uninhibited enzyme activity (100%).

Plasma Kallikrein, sequence (P03952 391-638): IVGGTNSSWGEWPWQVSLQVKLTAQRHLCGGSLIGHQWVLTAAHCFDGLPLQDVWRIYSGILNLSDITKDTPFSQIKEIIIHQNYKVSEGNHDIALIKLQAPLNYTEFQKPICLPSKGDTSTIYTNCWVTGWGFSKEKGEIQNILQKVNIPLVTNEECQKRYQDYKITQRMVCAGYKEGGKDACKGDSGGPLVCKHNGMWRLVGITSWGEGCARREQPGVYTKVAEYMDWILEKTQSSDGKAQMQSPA
Plasma Kallikrein, sequence (P03952 20-390 partner): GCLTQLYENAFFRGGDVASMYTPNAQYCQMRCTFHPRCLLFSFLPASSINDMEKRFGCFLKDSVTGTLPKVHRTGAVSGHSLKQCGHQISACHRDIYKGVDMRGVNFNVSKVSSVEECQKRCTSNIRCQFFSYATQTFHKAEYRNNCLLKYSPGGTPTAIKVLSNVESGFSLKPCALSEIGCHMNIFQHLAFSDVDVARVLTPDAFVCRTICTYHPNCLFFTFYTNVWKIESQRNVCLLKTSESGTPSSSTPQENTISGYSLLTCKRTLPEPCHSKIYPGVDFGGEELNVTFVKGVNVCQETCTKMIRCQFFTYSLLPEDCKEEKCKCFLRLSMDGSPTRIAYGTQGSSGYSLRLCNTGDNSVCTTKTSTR
Human Factor XIIa, sequence (P00748 373-615): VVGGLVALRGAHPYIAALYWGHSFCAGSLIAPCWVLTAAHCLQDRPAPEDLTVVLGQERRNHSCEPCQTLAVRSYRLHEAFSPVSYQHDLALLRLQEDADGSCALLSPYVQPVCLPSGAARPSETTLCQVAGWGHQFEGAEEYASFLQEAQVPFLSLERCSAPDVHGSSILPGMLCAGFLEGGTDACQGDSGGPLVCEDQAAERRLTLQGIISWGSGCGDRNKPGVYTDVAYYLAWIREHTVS

On to `Nc1nccc2c(NCc3ccnc(OCC4CCn5ccnc5C4)c3)cccc12` (single isomer, unassigned) [Example 4431, (R*)-N5-((2-((5,6,7,8-tetrahydroimidazo[1,2-a]pyridin-7-yl)methoxy)pyridin-4-yl)methyl)isoquinoline-1,5-diamine], for which the half-inhibitory concentration (IC50) against Human Factor XIIa was 0.1 to 0.3 µM; at Plasma Kallikrein, over 4 µM.

For the compound `CN1CCC(CNc2ccc(CNc3cc4ccnc(N)c4cn3)cn2)CC1` [Example 1196, N6-((6-(((1-methylpiperidin-4-yl)methyl)amino)pyridin-3-yl)methyl)-2,7-naphthyridine-1,6-diamine], the IC50 against Human Factor XIIa was in the range of 1 to 3 µM; on Plasma Kallikrein it was 3 to 10 µM.

`CN1CCC(CNc2ccc(CNc3ccnc4[nH]c(C(N)=O)cc34)cn2)CC1` [Example 1252, 4-(((6-(((1-methylpiperidin-4-yl)methyl)amino)pyridin-3-yl)methyl)amino)-1H-pyrrolo[2,3-b]pyridine-2-carboxamide]: the IC50 at Human Factor XIIa was 10 to 40 µM; at Plasma Kallikrein it was over 40 µM.

For the compound `CN1CCC(COc2cc(CNc3cnc4[nH]cc(C#N)c4c3)ccn2)CC1` [Example 4460], the results for the concentration for half-maximal inhibition (IC50) on Human Factor XIIa and on Plasma Kallikrein were 40 to 100 µM and over 100 µM, respectively.

On to `CC(C)(O)[C@H]1CCN(c2ccc(CNc3cccc4c(N)nccc34)cn2)C1` [Example 1131, 2-[(3S)-1-[5-[[(1-Amino-5-isoquinolyl)amino]methyl]-2-pyridyl]pyrrolidin-3-yl]propan-2-ol], for which the IC50 against Human Factor XIIa was in the range of 1 to 3 µM; on Plasma Kallikrein it was 10 to 40 µM.

On to `CN1CCC(COc2cc(CNc3cccc4c(N)ncc(F)c34)ccn2)CC1` [Example 4461, 4-fluoro-N5-((2-((1-methylpiperidin-4-yl)methoxy)pyridin-4-yl)methyl)isoquinoline-1,5-diamine], for which the IC50 at Human Factor XIIa is 3 to 10 µM; on Plasma Kallikrein it was over 40 µM.

Regarding `CN1CCC(COc2cc(CNc3ccnc4[nH]ccc34)ccn2)CC1` [Example 4459, N-((2-((1-methylpiperidin-4-yl)methoxy)pyridin-4-yl)methyl)-1H-pyrrolo[2,3-b]pyridin-4-amine], the IC50 against Human Factor XIIa is 10 to 40 µM; on Plasma Kallikrein, over 100 µM.

Consider `Nc1nccc2c(NCc3ccc(N4CCc5nccn5CC4)nc3)cccc12` [Example 1271, N5-((6-(5,6,8,9-tetrahydro-7H-imidazo[1,2-d][1,4]diazepin-7-yl)pyridin-3-yl)methyl)isoquinoline-1,5-diamine], for which the concentration for half-maximal inhibition (IC50) against Human Factor XIIa lay within 0.3 to 1 µM; on Plasma Kallikrein, 10 to 40 µM.

Regarding `COc1ccc2c(NCc3ccc(NCC4CCN(C)CC4)nc3)ccnc2c1` [Example 1217, 7-methoxy-N-((6-(((1-methylpiperidin-4-yl)methyl)amino)pyridin-3-yl)methyl)quinolin-4-amine], the IC50 against Human Factor XIIa was 40 to 100 µM; at Plasma Kallikrein it was over 40 µM.

On to `Nc1nccc2c(NCc3ccc(N4CCn5nccc5C4CO)nc3)cccc12` (centres unmarked) [Example 1268, (5-(5-(((1-aminoisoquinolin-5-yl)amino)methyl)pyridin-2-yl)-4,5,6,7-tetrahydropyrazolo[1,5-a]pyrazin-4-yl)methanol], for which the IC50 against Human Factor XIIa is 3 to 10 µM; on Plasma Kallikrein it was over 40 µM.

Regarding `Cc1c[nH]c2nccc(NCc3ccc(NCC4CCN(C)CC4)nc3)c12` [Example 1226, 3-methyl-N-((6-(((1-methylpiperidin-4-yl)methyl)amino)pyridin-3-yl)methyl)-1H-pyrrolo[2,3-b]pyridin-4-amine], the IC50 against Human Factor XIIa was 3 to 10 µM; at Plasma Kallikrein, over 100 µM.

For `Nc1ncc(Cl)c2cc(NCc3ccnc(OCC4CCCn5ccnc54)c3)ccc12` (single isomer, unassigned) [Example 4451, (R*)-4-chloro-N6-((2-((5,6,7,8-tetrahydroimidazo[1,2-a]pyridin-8-yl)methoxy)pyridin-4-yl)methyl)isoquinoline-1,6-diamine], the IC50 was 0.3 to 1 µM at Human Factor XIIa and over 40 µM at Plasma Kallikrein.

For `CC(C)(O)[C@@H]1CCN(c2ccc(CNc3cccc4c(N)nccc34)cn2)C1` [Example 1130, (R)-2-(1-(5-(((1-aminoisoquinolin-5-yl)amino)methyl)pyridin-2-yl)pyrrolidin-3-yl)propan-2-ol], the IC50 against Human Factor XIIa was 3 to 10 µM; at Plasma Kallikrein, over 40 µM.

As to `Cc1cc2c(NCc3ccnc(OCC4CCN(C)CC4)c3)ccnc2[nH]1` [Example 4465, 2-methyl-N-((2-((1-methylpiperidin-4-yl)methoxy)pyridin-4-yl)methyl)-1H-pyrrolo[2,3-b]pyridin-4-amine], the values for the IC50 against Human Factor XIIa and on Plasma Kallikrein were 1 to 3 µM and over 100 µM, respectively.

As to `CN1CCC(CNc2ccc(CNc3cccc4c(N)ncc(F)c34)cn2)CC1` [Example 1194, 4-fluoro-N5-((6-(((1-methylpiperidin-4-yl)methyl)amino)pyridin-3-yl)methyl)isoquinoline-1,5-diamine], the IC50 against Human Factor XIIa is 3 to 10 µM; at Plasma Kallikrein, over 40 µM.

Consider `Cc1cnc2[nH]ccc2c1NCc1ccc(NCC2CCN(C)CC2)nc1` [Example 1205, 5-methyl-N-((6-(((1-methylpiperidin-4-yl)methyl)amino)pyridin-3-yl)methyl)-1H-pyrrolo[2,3-b]pyridin-4-amine], for which the results for the IC50 against Human Factor XIIa and on Plasma Kallikrein were 10 to 40 µM and over 100 µM, respectively.

`Nc1ncc(Cl)c2cc(NCc3ccc(N4CCc5nccn5CC4)nc3)ccc12` [Example 1272, 4-chloro-N6-((6-(5,6,8,9-tetrahydro-7H-imidazo[1,2-d][1,4]diazepin-7-yl)pyridin-3-yl)methyl)isoquinoline-1,6-diamine]: the values for the half-maximal inhibitory concentration (IC50) against Human Factor XIIa and at Plasma Kallikrein were 1 to 3 µM and 10 to 40 µM, respectively.

For the compound `Nc1ncc(Cl)c2cc(NCc3ccnc(OCC4CCCn5ccnc54)c3)ccc12` (single isomer, unassigned) [Example 4450, (S*)-4-chloro-N6-((2-((5,6,7,8-tetrahydroimidazo[1,2-a]pyridin-8-yl)methoxy)pyridin-4-yl)methyl)isoquinoline-1,6-diamine], the IC50 against Human Factor XIIa lay in the range of 0.1 to 0.3 µM; at Plasma Kallikrein it was 10 to 40 µM.

Consider `Nc1nccc2c(NCc3ccc(N4Cc5nccn5C(CO)C4)nc3)cccc12` (centres unmarked) [Example 1133, (7-(5-(((1-aminoisoquinolin-5-yl)amino)methyl)pyridin-2-yl)-5,6,7,8-tetrahydroimidazo[1,2-a]pyrazin-5-yl)methanol], for which the values for the IC50 on Human Factor XIIa and at Plasma Kallikrein were 3 to 10 µM and over 40 µM, respectively.

For the compound `Cc1cn2c(n1)CC(COc1cc(CNc3cccc4c(N)nccc34)ccn1)CC2` (single isomer, unassigned) [Example 4447, (R*)-N5-((2-((2-methyl-5,6,7,8-tetrahydroimidazo[1,2-a]pyridin-7-yl)methoxy)pyridin-4-yl)methyl)isoquinoline-1,5-diamine], the IC50 against Human Factor XIIa was 0.3 to 1 µM; on Plasma Kallikrein, 3 to 10 µM.

With `Nc1ncc(Cl)c2cc(NCc3ccc(N4CC5(CC(O)c6nccn65)C4)nc3)ccc12` (centres unmarked) [Example 1270, 1-(5-(((1-amino-4-chloroisoquinolin-6-yl)amino)methyl)pyridin-2-yl)-6′,7′-dihydrospiro[azetidine-3,5′-pyrrolo[1,2-a]imidazol]-7′-ol], the values for the IC50 against Human Factor XIIa and at Plasma Kallikrein were 10 to 40 µM and over 40 µM, respectively.

Turning to `Nc1nccc2c(NCc3ccc(N4CCn5cnnc5C4)nc3)cccc12` [Example 1276, N5-((6-(5,6-dihydro-[1,2,4]triazolo[4,3-a]pyrazin-7(8H)-yl)pyridin-3-yl)methyl)isoquinoline-1,5-diamine], the half-inhibitory concentration (IC50) at Human Factor XIIa is 1 to 3 µM; at Plasma Kallikrein, over 40 µM.

Regarding `CN1CCC(CNc2ccc(CNc3ccc4c(N)ncc(F)c4c3)cn2)CC1` [Example 1195, 4-fluoro-N6-((6-(((1-methylpiperidin-4-yl)methyl)amino)pyridin-3-yl)methyl)isoquinoline-1,6-diamine], the IC50 against Human Factor XIIa lay in the range of 0.1 to 0.3 µM; on Plasma Kallikrein it was 3 to 10 µM.

For `CN1CCC(CNc2ccc(CNc3cnc4nccnc4c3)cn2)CC1` [Example 1189, N-((6-(((1-methylpiperidin-4-yl)methyl)amino)pyridin-3-yl)methyl)pyrido[2,3-b]pyrazin-7-amine], the half-inhibitory concentration (IC50) against Human Factor XIIa is 40 to 100 µM; at Plasma Kallikrein, over 40 µM.

With `CN1CCC(CNc2ccc(CNc3c(F)cnc4[nH]ccc34)cn2)CC1` [Example 1206, 5-fluoro-N-((6-(((1-methylpiperidin-4-yl)methyl)amino)pyridin-3-yl)methyl)-1H-pyrrolo[2,3-b]pyridin-4-amine], the IC50 was 40 to 100 µM at Human Factor XIIa and over 100 µM on Plasma Kallikrein.

`CN1CCC(Oc2ccc(CNc3ccc4ccnc(N)c4c3)cc2)CC1` [Example 1003, N7-(4-((1-methylpiperidin-4-yl)oxy)benzyl)isoquinoline-1,7-diamine]: the 50% inhibitory concentration (IC50) against Human Factor XIIa lay in the range of 3 to 10 µM; on Plasma Kallikrein, 10 to 40 µM.

Consider `Nc1nccc2cc(NCc3ccnc(OCC4CCn5ccnc5C4)c3)ncc12` (centres unmarked) [Example 4429, N6-[[2-(5,6,7,8-tetrahydroimidazo[1,2-a]pyridin-7-ylmethoxy)-4-pyridyl]methyl]-2,7-naphthyridine-1,6-diamine], for which the 50% inhibitory concentration (IC50) is 1 to 3 µM against Human Factor XIIa and 3 to 10 µM at Plasma Kallikrein.

For `Nc1ncc(Cl)c2cc(NCc3ccc(NCCc4nccn4C(F)F)nc3)ccc12` [Example 1182, 4-chloro-N6-((6-((2-(1-(difluoromethyl)-1H-imidazol-2-yl)ethyl)amino)pyridin-3-yl)methyl)isoquinoline-1,6-diamine], the IC50 against Human Factor XIIa was 10 to 40 µM; at Plasma Kallikrein it was over 40 µM.
